Results as given in ChEMBL document CHEMBL2417501, “Synthesis of 4-aminoquinoline-pyrimidine hybrids as potent antimalarials and their mode of action studies” (Eur J Med Chem, 2013).

What was measured:
[1] = tested on: Human alphaherpesvirus 3; assay: Antiviral activity against […] Varicella-zoster virus 07-1 infected in human HEL cells assessed as reduction of plaque formation; assay type: functional, organism-based; details: Human alphaherpesvirus 3, 07-1, HEL
[2] = Cytotoxicity against human HEL cells; assay type: cell-based
[3] = tested on: Vesicular stomatitis virus; assay: Antiviral activity against Vesicular stomatitis virus infected in human HEL cells assessed as reduction of virus-induced cytopathogenicity; assay type: functional, organism-based
[4] = tested on: Plasmodium falciparum; assay: Antimalarial activity against chloroquine-resistant Plasmodium falciparum Dd2; assay type: functional, organism-based
[5] = tested on: Punta Toro virus; assay: Antiviral activity against […] infected in african green monkey Vero cells assessed as reduction of virus-induced cytopathogenicity; assay type: functional, organism-based
[6] = Cytotoxicity against african green monkey Vero cells; assay type: cell-based; details: chlorocebus sabaeus
[7] = tested on: Coxsackievirus; assay: Antiviral activity against Coxsackievirus B4 infected in african green monkey Vero cells assessed as reduction of virus-induced cytopathogenicity; assay type: functional, organism-based
[8] = tested on: Vesicular stomatitis virus; assay: Antiviral activity against Vesicular stomatitis virus infected in human HeLa cells assessed as reduction of virus-induced cytopathogenicity; assay type: functional, organism-based
[9] = tested on: Respiratory syncytial virus; assay: Antiviral activity against Respiratory syncytial virus infected in human HeLa cells assessed as reduction of virus-induced cytopathogenicity; assay type: functional, organism-based
[10] = tested on: Influenza A virus; assay: Antiviral activity against influenza A virus […] subtype infected in dog MDCK cells assessed as reduction of virus-induced cytopathogenicity by MTS assay; assay type: functional, organism-based
[11] = tested on: Cytomegalovirus; assay: Antiviral activity against Cytomegalovirus Davis infected in human HEL cells assessed as reduction of plaque formation; assay type: functional, organism-based; details: Human betaherpesvirus 5, Davis
[12] = tested on: Plasmodium falciparum; assay: Antimalarial activity against chloroquine-sensitive Plasmodium falciparum D10 by two-fold dilution technique; assay type: functional, organism-based
[13] = tested on: Human alphaherpesvirus 1; assay: Antiviral activity against Herpes simplex virus-1 KOS infected in human HEL cells assessed as reduction of virus-induced cytopathogenicity; assay type: functional, organism-based; details: Human alphaherpesvirus 1, KOS
[14] = tested on: Influenza B virus; assay: Antiviral activity against influenza B virus infected in dog MDCK cells assessed as reduction of virus-induced cytopathogenicity by MTS assay; assay type: functional, organism-based
[15] = tested on: Coxsackievirus; assay: Antiviral activity against Coxsackievirus B4 infected in human HeLa cells assessed as reduction of virus-induced cytopathogenicity; assay type: functional, organism-based
[16] = Inhibition of beta-hematin formation at 1 mg/ml; assay type: functional
[17] = tested on: Mammalian orthoreovirus 1; assay: Antiviral activity against Reovirus-1 infected in african green monkey Vero cells assessed as reduction of virus-induced cytopathogenicity; assay type: functional, organism-based; details: Mammalian orthoreovirus 1, Vero
[18] = tested on: Human alphaherpesvirus 3; assay: Antiviral activity against TK-positive Varicella-zoster virus OKA infected in human HEL cells assessed as reduction of plaque formation; assay type: functional, cell-based; details: Human alphaherpesvirus 3, strain Oka vaccine
[19] = tested on: Influenza A virus; assay: Antiviral activity against influenza A virus H1N1 subtype infected in dog MDCK cells assessed as reduction of virus-induced cytopathogenicity by MTS assay; assay type: functional, organism-based
[20] = Selectivity index, ratio of CC50 for MDCK cells to IC50 for chloroquine-resistant Plasmodium falciparum Dd2; assay type: functional
[21] = tested on: Human respirovirus 3; assay: Antiviral activity against Parainfluenza-3 virus infected in african green monkey Vero cells assessed as reduction of virus-induced cytopathogenicity; assay type: functional, organism-based; details: Human respirovirus 3, Vero
[22] = tested on: Feline coronavirus; assay: Antiviral activity against Feline coronavirus infected in cat CRFK cells assessed as reduction of virus-induced cytopathogenicity by MTS assay; assay type: functional, organism-based; details: Alphacoronavirus 1, CRFK
[23] = tested on: Felid alphaherpesvirus 1; assay: Antiviral activity against feline herpesvirus infected in cat CRFK cells assessed as reduction of virus-induced cytopathogenicity by MTS assay; assay type: functional, organism-based; details: Felid alphaherpesvirus 1, CRFK
[24] = tested on: MDCK; assay: (§1) Cytotoxicity against MDCK cells assessed as cell viability after 4 days by MTS assay; assay type: cell-based, Canis lupus familiaris; details: dog, mdck, 96 h
[25] = as §1; assay type: cell-based, Canis lupus familiaris; details: dog, MDCK cells
[26] = tested on: Human alphaherpesvirus 1; assay: Antiviral activity against TK-negative Herpes simplex virus 1 KOS infected in human HEL cells assessed as reduction of virus-induced cytopathogenicity; assay type: functional, organism-based; details: Human alphaherpesvirus 1, KOS
[27] = tested on: Human alphaherpesvirus 2; assay: Antiviral activity against Herpes simplex virus-2 G infected in human HEL cells assessed as reduction of virus-induced cytopathogenicity; assay type: functional, organism-based; details: Human alphaherpesvirus 2, strain G
[28] = tested on: Cytomegalovirus; assay: Antiviral activity against Cytomegalovirus AD-169 infected in human HEL cells assessed as reduction of plaque formation; assay type: functional, organism-based; details: Human betaherpesvirus 5, AD-169, HEL
[29] = Cytotoxicity against human HeLa cells; assay type: cell-based
[30] = Cytotoxicity against cat CRFK cells; assay type: cell-based, Felis catus; details: crfk
[31] = tested on: Sindbis virus; assay: Antiviral activity against Sindbis virus infected in african green monkey Vero cells assessed as reduction of virus-induced cytopathogenicity; assay type: functional, organism-based

Compound | EC50 [1] [µM] | MCC [2] [µM] | EC50 [3] [µM] | EC50 [5] [µM] | MCC [6] [µM] | EC50 [7] [µM] | EC50 [8] [µM] | EC50 [9] [µM] | EC50 ([10]; read-out: EC50) [µM] | EC50 [11] [µM] | EC50 [13] [µM] | EC50 [14] [µM] | EC50 [15] [µM] | inhibition [16] [%] | EC50 [17] [µM] | EC50 [18] [µM] | EC50 [19] [µM] | EC50 [21] [µM] | MCC at 96 h [25] [µM] | EC50 [27] [µM] | further results
Nc1nc2c(ncn2COCCO)c(=O)[nH]1 [ACYCLOVIR] | 144 | > 250 | > 250 |  |  |  |  |  |  |  |  |  |  |  |  |  |  |  |  |  | 
COC(=O)c1c(C)nc(NCCCNc2ccnc3cc(Cl)ccc23)nc1-c1ccccc1 | > 4 | ≥ 20 | > 20 | > 4 | 20 | > 4 | > 20 | > 20 | > 0.16 | 15.3 | > 20 | > 0.16 | > 20 | 46 | > 4 | > 4 | > 0.16 | > 4 | 0.8 | > 20 | IC50 [4]: 0.542 µM; IC50 [12]: 0.659 µM; Ratio CC50/IC50 [20]: 3.13; EC50 [22]: 1.1 µM; EC50 [23]: > 20 µM; CC50 [24]: 1.7 µM; EC50 [26]: > 20 µM; EC50 [28]: 10.9 µM; MCC [29]: 100 µM; CC50 [30]: 25.1 µM; EC50 [31]: > 4 µM
CC(N)C12CC3CC(CC(C3)C1)C2 (stereo unspecified) [RIMANTADINE] |  |  |  |  |  |  |  |  | 0.01 |  |  | > 200 |  |  |  |  | 6.4 |  | > 200 |  | 
CCOC(=O)c1c(C)nc(NCCCCNc2ccnc3cc(Cl)ccc23)nc1-c1ccc(F)cc1 | > 4 | ≥ 20 | > 100 | > 4 | 20 | > 4 | > 100 | > 100 | > 4 | > 4 | > 100 | > 4 | > 100 | 59 | > 4 | > 4 | > 4 | > 4 | 20 | > 100 | IC50 [12]: 2.76 µM; EC50 [22]: > 100 µM; EC50 [23]: > 100 µM; CC50 [24]: 11.4 µM; EC50 [26]: > 100 µM; EC50 [28]: > 4 µM; MCC [29]: > 100 µM; CC50 [30]: > 100 µM; EC50 [31]: > 4 µM
CCOC(=O)c1c(C)nc(NCCCCNc2ccnc3cc(Cl)ccc23)nc1-c1ccccc1[N+](=O)[O-] | > 4 | 20 | > 4 | > 0.8 | 4 | > 0.8 | > 20 | > 20 | > 0.16 | > 4 | > 4 | > 0.16 | > 20 | 49 | > 0.8 | > 4 | > 0.16 | > 0.8 | 0.8 | > 4 | IC50 [12]: 1.46 µM; EC50 [22]: 9 µM; EC50 [23]: > 100 µM; CC50 [24]: 0.8 µM; EC50 [26]: > 4 µM; EC50 [28]: > 4 µM; MCC [29]: 100 µM; CC50 [30]: > 100 µM; EC50 [31]: > 0.8 µM
CS(=O)(=O)c1ccc(-c2cnc(N)c(-c3ccc(C(F)(F)F)nc3)c2)cc1 [MMV-048] |  |  |  |  |  |  |  |  |  |  |  |  |  |  |  |  |  |  |  |  | IC50 [4]: 0.0178 µM
NC12CC3CC(CC(C3)C1)C2 [AMANTADINE] |  |  |  |  |  |  |  |  |  |  |  | > 200 |  |  |  |  | 17 |  | > 200 |  | EC50 [10]: 0.3 µM
O=c1[nH]c(=O)n([C@H]2C[C@H](O)[C@@H](CO)O2)cc1/C=C/Br [BRIVUDINE] | 145 | > 250 | > 250 |  |  |  |  |  |  |  |  |  |  |  |  | 3.82 |  |  |  | 146 | 
CCOC(=O)c1c(C)nc(OCCCNc2ccnc3cc(Cl)ccc23)nc1-c1ccccc1 | > 4 | > 4 | > 100 | > 20 | 100 | > 20 | > 100 | > 100 | > 4 | 2.53 | > 100 | > 4 | > 100 | 87 | > 20 | > 4 | > 4 | > 20 | 20 | > 100 | IC50 [4]: 0.483 µM; Ratio CC50/IC50 [20]: 43.6; EC50 [22]: > 100 µM; EC50 [23]: > 100 µM; CC50 [24]: 21.1 µM; EC50 [26]: > 100 µM; EC50 [28]: 2 µM; MCC [29]: > 100 µM; CC50 [30]: > 100 µM; EC50 [31]: > 20 µM
